The term AC50 denotes the midpoint of the concentration-response curve, whichever way the signal moves. One may read the GI50 as the concentration at which growth is held to half of that of the control.

Data on 21 molecules can be found in ChEMBL document CHEMBL1201862, “PubChem BioAssay data set” (2004).

Each structure is given as a SMILES string. Active and inactive are the calls of the source.

Assay [1] concerns the target FAD-linked sulfhydryl oxidase ALR (Homo sapiens, UniProt P55789). In words: inhibitors of human ALR sulfhydryl oxidase, dose response, biochemical, H2O2 detection, luminescence, cherry-pick (AID 493248).
The target of assay [2] is T1, Corticotropin-releasing factor receptor 2/Corticotropin-releasing factor-binding protein (Homo sapiens, UniProt P24387+Q13324).
T1 sequence (Q13324 whole entry): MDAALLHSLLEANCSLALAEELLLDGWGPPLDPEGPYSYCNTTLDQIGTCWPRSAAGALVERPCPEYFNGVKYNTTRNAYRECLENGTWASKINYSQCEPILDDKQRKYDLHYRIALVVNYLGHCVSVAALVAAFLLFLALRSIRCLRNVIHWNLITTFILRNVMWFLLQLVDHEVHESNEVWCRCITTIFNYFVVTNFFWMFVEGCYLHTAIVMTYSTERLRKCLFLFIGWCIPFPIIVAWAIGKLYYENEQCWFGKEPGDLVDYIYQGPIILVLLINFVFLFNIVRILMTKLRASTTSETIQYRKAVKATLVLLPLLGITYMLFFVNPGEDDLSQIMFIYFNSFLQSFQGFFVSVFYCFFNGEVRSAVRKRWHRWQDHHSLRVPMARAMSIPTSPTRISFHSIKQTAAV
T1 sequence (P24387 whole entry): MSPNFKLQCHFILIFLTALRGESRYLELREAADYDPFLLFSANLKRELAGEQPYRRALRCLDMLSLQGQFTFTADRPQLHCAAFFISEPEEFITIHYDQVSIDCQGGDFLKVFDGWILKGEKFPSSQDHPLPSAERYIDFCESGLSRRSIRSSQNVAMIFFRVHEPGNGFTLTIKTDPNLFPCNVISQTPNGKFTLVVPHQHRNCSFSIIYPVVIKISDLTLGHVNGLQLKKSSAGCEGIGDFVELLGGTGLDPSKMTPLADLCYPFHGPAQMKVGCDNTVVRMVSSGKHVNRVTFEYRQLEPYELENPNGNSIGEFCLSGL
Briefly: Dose Response confirmation of uHTS hits for small molecule antagonists of the CRF-binding protein and CRF-R2 receptor complex. In kind it is functional. The settings on record: read-out: IC50_Mean.

Assay [3] deals with T1, Corticotropin-releasing factor receptor 2/Corticotropin-releasing factor-binding protein. In words: activators of CRF receptor 2 with binding protein – uHTS hits, confirmation (AID 602473). In kind it is functional. The settings on record: read-out: EC50_Mean.
A further assay concerns the target Fatty acid synthase (Homo sapiens, UniProt P49327). Briefly: FAS thioesterase domain inhibitors, dose response, biochemical, kinetic fluorescence intensity (AID 624326).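 Further: rate of fluorescence rise from hydrolysis of a fluorogenic O-methyl fluorescein ester substrate.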 In kind it is functional.
Assay [4] is described as follows: cytotoxicity toward NIH3T3 fibroblasts, dose response, counter-screen, cell-based, ATP luminescence, mouse fibroblasts (AID 2010).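 Further: cells exposed to compound for about 90 hours before reading.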 In kind it is functional. (In general: The purpose of a counterscreen is to sort out artefacts and off-target activity.)
A short description of assay [5]: inhibitors of intracellular T. cruzi replication, confirmation, NIH3T3 host cells, beta-gal luminescence (AID 2044).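 Further: intracellular parasites grown in NIH/3T3 mouse fibroblasts as host cells; luminescent beta-galactosidase reporter signal from transgenic T. cruzi replicating inside host cells; inhibitors lower the luminescence signal.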 In kind it is functional, cell-based.
In a further assay the target is T2, Leucine aminopeptidase (Plasmodium falciparum 3D7, UniProt Q8IL11).
T2 sequence (Q8IL11 whole entry): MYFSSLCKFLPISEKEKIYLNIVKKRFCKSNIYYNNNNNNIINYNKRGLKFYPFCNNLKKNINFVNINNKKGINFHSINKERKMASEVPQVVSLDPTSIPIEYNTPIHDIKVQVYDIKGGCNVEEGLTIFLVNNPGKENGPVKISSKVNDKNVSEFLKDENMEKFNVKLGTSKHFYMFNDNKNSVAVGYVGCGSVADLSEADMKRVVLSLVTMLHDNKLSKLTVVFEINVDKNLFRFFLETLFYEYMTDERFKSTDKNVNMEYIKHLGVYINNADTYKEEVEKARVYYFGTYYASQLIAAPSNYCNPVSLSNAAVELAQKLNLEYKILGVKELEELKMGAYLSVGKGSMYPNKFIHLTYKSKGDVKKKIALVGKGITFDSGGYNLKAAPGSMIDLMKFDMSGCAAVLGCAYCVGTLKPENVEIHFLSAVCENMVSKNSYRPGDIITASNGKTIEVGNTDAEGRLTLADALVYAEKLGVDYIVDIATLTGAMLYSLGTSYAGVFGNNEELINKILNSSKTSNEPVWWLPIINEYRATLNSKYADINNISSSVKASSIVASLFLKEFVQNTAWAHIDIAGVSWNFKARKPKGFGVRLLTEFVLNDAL
Briefly: P. falciparum M17LAP inhibitors, primary screen, biochemical, fluorogenic H-Leu-NHMec substrate, 1536-well (AID 1619). In kind it is functional.

The target of assay [6] is T3, High affinity choline transporter 1 (Homo sapiens, UniProt Q9GZV3).
T3 sequence (Q9GZV3 whole entry): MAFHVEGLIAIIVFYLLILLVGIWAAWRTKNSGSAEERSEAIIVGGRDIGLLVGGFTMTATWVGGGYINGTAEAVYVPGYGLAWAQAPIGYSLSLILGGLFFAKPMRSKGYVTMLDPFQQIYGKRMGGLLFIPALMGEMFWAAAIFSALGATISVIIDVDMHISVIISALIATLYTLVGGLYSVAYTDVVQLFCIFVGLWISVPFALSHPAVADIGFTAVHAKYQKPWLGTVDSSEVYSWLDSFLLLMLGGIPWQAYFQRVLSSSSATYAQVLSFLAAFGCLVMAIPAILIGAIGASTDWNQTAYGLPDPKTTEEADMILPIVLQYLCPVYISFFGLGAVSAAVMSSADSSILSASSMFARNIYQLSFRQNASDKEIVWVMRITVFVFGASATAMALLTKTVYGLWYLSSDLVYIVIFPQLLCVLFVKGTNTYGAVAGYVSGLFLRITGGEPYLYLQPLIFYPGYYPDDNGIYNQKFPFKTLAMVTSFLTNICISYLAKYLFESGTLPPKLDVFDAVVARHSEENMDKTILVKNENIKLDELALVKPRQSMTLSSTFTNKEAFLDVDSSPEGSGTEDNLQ
Briefly: CHT inhibitors, dose response, cell-based, 5-point CRC, membrane potential dye (AID 504840). In kind it is functional.

Assay [7] addresses T4, Microphthalmia-associated transcription factor (Homo sapiens, UniProt O75030).
T4 sequence (O75030 whole entry): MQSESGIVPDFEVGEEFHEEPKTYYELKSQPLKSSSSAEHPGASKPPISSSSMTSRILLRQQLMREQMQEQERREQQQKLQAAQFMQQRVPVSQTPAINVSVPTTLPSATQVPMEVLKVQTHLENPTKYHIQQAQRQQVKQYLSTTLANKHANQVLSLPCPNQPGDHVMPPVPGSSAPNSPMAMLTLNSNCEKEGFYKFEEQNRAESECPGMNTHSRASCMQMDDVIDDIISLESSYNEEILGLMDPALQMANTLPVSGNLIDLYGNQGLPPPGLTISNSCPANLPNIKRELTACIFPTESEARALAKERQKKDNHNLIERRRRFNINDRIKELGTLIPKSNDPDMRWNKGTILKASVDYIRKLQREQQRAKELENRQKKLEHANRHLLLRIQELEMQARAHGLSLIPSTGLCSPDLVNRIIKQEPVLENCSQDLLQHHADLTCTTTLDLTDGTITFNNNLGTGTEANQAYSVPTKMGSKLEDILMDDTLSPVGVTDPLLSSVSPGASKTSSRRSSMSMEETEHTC
Briefly: TRPM1 promoter luciferase signal decrease, dose response, MITF inhibitor project, cell-based, SK-MEL-5, cherry-picked, set 3 (AID 493073).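 Further: SK-MEL-5 melanoma cells with luciferase driven by the MITF target TRPM1 promoter.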 In kind it is functional.

Another assay has as its system SN12K1. In words: cells. In kind it is functional. The following applies: Homo sapiens.
For a further assay, the system named is P388. In words: cells. In kind it is functional. The settings on record: Mus musculus.
The next assay relates to P388/ADR. In words: cells. Format: functional. The following applies: Mus musculus.
The nature of assay [8]: ZM109 Env clade C HIV-1 fusion inhibitors, dose response, HeLa effector, CEM target cells, luciferase, cherry-pick (AID 652058). Format: functional, cell-based.

FAD-linked sulfhydryl oxidase ALR, sequence (P55789 whole entry): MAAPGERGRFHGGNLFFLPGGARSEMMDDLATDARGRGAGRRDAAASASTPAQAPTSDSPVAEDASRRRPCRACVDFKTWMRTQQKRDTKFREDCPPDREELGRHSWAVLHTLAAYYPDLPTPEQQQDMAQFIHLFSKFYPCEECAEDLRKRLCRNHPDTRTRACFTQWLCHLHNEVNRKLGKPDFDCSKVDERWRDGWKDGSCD
Fatty acid synthase, sequence (P49327 whole entry, the tested form may be a part): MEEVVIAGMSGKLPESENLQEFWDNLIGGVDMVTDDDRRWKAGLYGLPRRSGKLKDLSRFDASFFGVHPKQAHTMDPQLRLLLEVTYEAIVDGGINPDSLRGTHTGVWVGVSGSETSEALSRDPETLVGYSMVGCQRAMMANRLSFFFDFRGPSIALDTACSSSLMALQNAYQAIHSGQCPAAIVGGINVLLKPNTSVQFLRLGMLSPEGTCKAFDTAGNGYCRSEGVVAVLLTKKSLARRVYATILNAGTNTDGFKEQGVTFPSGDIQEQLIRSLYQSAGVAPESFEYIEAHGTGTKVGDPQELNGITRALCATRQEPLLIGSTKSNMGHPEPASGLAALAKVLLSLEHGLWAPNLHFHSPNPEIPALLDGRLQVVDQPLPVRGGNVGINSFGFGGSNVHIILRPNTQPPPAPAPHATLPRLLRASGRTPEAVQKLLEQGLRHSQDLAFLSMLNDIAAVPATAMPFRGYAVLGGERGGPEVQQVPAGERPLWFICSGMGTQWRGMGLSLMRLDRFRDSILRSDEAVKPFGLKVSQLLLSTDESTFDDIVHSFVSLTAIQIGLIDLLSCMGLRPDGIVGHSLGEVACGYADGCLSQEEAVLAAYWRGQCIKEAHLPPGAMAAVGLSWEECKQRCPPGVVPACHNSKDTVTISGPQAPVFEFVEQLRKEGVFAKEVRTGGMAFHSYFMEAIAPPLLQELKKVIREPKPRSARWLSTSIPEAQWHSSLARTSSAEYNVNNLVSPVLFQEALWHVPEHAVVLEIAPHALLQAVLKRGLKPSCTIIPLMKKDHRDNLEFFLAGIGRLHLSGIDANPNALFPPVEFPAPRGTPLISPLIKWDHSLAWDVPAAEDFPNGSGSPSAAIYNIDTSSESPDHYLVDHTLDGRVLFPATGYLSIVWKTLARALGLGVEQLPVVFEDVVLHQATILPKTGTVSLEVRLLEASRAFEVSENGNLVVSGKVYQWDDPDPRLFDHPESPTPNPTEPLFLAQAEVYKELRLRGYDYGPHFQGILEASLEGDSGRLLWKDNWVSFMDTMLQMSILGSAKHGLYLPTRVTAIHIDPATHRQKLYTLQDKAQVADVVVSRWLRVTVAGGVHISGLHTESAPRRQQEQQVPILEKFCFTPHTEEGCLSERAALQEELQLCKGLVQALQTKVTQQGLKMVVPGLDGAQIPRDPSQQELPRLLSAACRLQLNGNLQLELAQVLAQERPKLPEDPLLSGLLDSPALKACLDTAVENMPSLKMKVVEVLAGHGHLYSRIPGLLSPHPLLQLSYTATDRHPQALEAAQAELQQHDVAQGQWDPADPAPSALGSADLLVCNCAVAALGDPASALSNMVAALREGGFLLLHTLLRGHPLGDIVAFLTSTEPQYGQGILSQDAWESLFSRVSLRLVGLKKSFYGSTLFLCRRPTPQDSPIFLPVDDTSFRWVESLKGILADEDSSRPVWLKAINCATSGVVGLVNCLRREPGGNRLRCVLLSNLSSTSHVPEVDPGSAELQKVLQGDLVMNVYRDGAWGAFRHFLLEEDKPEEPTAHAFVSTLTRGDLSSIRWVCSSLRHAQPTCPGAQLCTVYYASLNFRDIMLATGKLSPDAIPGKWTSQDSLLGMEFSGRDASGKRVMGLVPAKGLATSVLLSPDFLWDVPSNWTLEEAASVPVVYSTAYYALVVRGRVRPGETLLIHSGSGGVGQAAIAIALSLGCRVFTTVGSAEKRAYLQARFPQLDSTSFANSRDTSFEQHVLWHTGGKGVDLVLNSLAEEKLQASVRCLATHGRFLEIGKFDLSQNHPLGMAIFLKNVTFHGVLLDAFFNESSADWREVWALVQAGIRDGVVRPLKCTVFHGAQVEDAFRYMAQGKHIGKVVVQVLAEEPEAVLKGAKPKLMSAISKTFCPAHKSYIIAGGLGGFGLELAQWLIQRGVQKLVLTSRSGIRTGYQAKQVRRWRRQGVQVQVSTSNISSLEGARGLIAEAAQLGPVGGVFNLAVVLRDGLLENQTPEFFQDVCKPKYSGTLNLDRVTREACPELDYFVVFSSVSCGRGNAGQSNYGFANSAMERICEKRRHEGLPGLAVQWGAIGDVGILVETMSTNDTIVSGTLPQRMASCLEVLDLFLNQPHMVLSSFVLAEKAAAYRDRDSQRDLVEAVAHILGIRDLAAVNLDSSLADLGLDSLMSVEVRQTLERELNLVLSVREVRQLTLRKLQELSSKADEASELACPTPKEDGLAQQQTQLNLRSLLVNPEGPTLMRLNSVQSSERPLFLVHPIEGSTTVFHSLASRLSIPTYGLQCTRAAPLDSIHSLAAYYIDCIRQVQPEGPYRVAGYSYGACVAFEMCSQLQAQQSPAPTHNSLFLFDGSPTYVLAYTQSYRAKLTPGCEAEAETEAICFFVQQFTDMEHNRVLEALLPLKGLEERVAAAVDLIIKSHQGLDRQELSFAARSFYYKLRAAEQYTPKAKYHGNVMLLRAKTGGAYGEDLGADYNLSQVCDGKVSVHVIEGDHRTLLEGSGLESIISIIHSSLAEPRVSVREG

With `CCCNC(=O)c1cc2c3ccccc3n(C)c2s1`, the AC50 in assay [1] is 0.137 µM (active).

As to `CN(C)c1ccc(C(=O)NNC(=O)c2ccc(Cl)cc2)cc1`, the IC50 in [2] is > 47.1 µM (inactive). Moreover, in [3], the EC50 was > 53 µM (inactive).

`COC(=O)C1=C(C(=O)c2ccccc2)C(c2ccc(O)c(OC)c2)n2nnnc2N1` (stereo unspecified): in assay [2], the IC50 is > 47.1 µM (inactive). Also, the EC50 in [3] is > 53 µM (inactive).

Regarding `O=S(=O)(Nc1ccccc1O)c1ccc2[nH]c(O)nc2c1`, in assay [1], the AC50 is 2.1 µM (active).

`Cc1ccc(N2C(=O)CC(NNC(=O)c3cccc(S(=O)(=O)N4CCCC4)c3)C2=O)cc1` (stereo unspecified): in assay [1], the AC50 is 9.56 µM (active).

For the molecule `CN(C)S(=O)(=O)c1ccc(-c2csc(-c3cccnc3)n2)cc1`, the IC50 at Fatty acid synthase is 3.34 µM (active).

For `C=CCn1c(SCc2ccc(C(=O)O)cc2)nc2sc(C)c(C)c2c1=O`, the AC50 in assay [1] was 4.74 µM (active).

In the case of `COc1ccc2c(C)cc(SCn3nnc4ccccc4c3=O)nc2c1`, the IC50 in assay [2] is > 47.1 µM (inactive). Further, in assay [3], the EC50 was > 53 µM (inactive).

As for `Fc1ccc(OCCCCCn2ccnc2)cc1`, the EC50 in assay [4] is > 60 µM (not active); in assay [5], 1.67 µM (active); in assay [3], > 53 µM (inactive). Further, in assay [2], the IC50 was > 47.1 µM (inactive).

Turning to `CC(/C=C1\SC(=O)N(CCCC(=O)O)C1=O)=C\c1ccccc1`, the IC50 on Leucine aminopeptidase was 15.8 µM (active); in [6], 12.6 µM (active). Besides, the AC50 in assay [1] was 4.84 µM (active); in assay [7] it was 2.36 µM (active).

`Cn1ccnc1SCc1cn2ccccc2n1`: the IC50 in [2] was > 47.1 µM (inactive). Besides, in assay [3], the EC50 is > 53 µM (inactive).

With `Cc1c(C)c(C)c(C(=O)CCc2cccc(NC(=O)CCC(=O)O)c2)c(C)c1C`, the AC50 in assay [1] is 1.72 µM (active).

Regarding `CNC(=O)OCc1nc(SC)n(C)c1CO`, the GI50 in the assay with SN12K1, in the assay on P388 and with P388/ADR was > 100 µM (inactive) throughout.

Consider `Cc1c(-c2cc3n(n2)C(c2cccs2)C(C#N)=C(c2ccccc2)N3)c(=O)n(-c2ccccc2)n1C` (stereo unspecified), for which the figures for the GI50 in the assay with SN12K1, with P388 and with P388/ADR were 86.5 µM (inactive), 42.1 µM (inactive) and 76.4 µM (inactive), respectively.

With `CC1=NN(C(=O)c2ccccc2)C(=O)C1/N=N/c1ccccc1C(=O)O` (stereo unspecified), the GI50 with SN12K1 was 3.24 µM (inactive); with P388, 9.51 µM (inactive); in the assay on P388/ADR, 5.55 µM (inactive).

As for `Cc1c2cc[n+](C)cc2c(COC2OC(CO)C(O)C2O)c2c3ccccc3n(C)c12` (stereo unspecified), the GI50 with SN12K1 was 58.2 µM (inactive); in the assay on P388 it was 2.69 µM (inactive); in the assay on P388/ADR, > 100 µM (inactive).

Turning to `CN(C)CCNC(=O)c1cccc2c1Nc1ccccc1S2`, the GI50 in the assay on SN12K1 is 8.18 µM (inactive); with P388, 2.25 µM (inactive); in the assay on P388/ADR, 2.84 µM (inactive).

For the molecule `C[C@@H]1CN([C@H](C)CO)C(=O)c2cccc(NC(=O)c3cnccn3)c2O[C@H]1CN(C)Cc1ccccc1`, the AC50 in [8] is 36.6 µM (active).

Consider `COc1cccc2c1C(=O)c1c(O)c3c(c(O)c1C2=O)C[C@@](O)(C(=O)CO)C[C@@H]3OC1CC(N2CCOCC2C#N)C(O)C(C)O1` (stereo partly specified), for which the GI50 was 1.13e-05 µM (active) in the assay on SN12K1 and 2.9e-06 µM (active) in the assay on P388.

On to `Cc1c2cc[n+]([O-])cc2c(C)c2c1[nH]c1ccccc12`, for which the results for the GI50 with SN12K1, with P388 and with P388/ADR were 3.38 µM (inactive), 0.753 µM (active) and 4.45 µM (inactive), respectively.

Take `OCC1OC(n2cnc3c2NC=NC[C@H]3O)CC1O` (stereo partly specified): the GI50 with SN12K1 is 405 µM (inactive); in the assay with P388, 366 µM (inactive); with P388/ADR, 291 µM (inactive).
